# Patent US4528289A, “Corynantheine derivates, processes for their preparation, and their use” (Dr. Willmar Schwabe GmbH & Co., priority 1982, dated 1985)
# Counter-ions that a name gives are not always drawn.
# Assay: hygroscopicity of crystals
# Type: physicochemical
# Conditions: crystals dried at 110° C. for 8 hours at oil pump vacuum
# Experimental: For analysis, the product is again recrystallised from methanol by the addition of diethyl ether. […] 187° C. (decomp. from 158° C., subl. of the base); [α]D^20 =-26° (c=2 in methanol).
smiles,measurement,value
"CC[C@H]1CN2CCc3c([nH]c4ccccc34)[C@@H]2C[C@@H]1C(COC)C(=O)OC (stereo partly shown) [Example 9, tetrahydrocorynantheine hydrochloride]",hygroscopicity (in words),slightly hygroscopic
